Peptide text beside a SMILES is read from it.
System: Botrytis cinerea (B05.10)
Assay: Resazurin antifungal assay of 180 alpha-factor peptide variants towards Botrytis (Example 2)
Type: cell-based
Parameters: key to active against Botrytis at 15 μM / active against Botrytis at 10 μM: Peptides that showed greater than 90% inhibition were considered active against Botrytis
Conditions: for Inhibition at 10 μM / Inhibition at 20 μM / Inhibition at 50 μM / Inhibition at 100 μM / Inhibition at 15 μM: % inhibition of fungal growth, Botrytis conidia, resazurin; for Inhibition at 10 μM: peptide 10 μM; for Inhibition at 20 μM: peptide 20 μM; for Inhibition at 50 μM: peptide 50 μM; for Inhibition at 100 μM: peptide 100 μM
Experimental: The antifungal activity of 180 alpha-factor peptide variants towards Botrytis was tested. Experimental design:
Peptides corresponding to SEQ ID NO: 1-180 were chemically synthesized using the solid-phase synthesis method and resuspended in water to a stock solution of 1 mM. The stock solution was aliquoted in cryovials and stored at −80° C.
The Botrytis cinerea culture (B05.10) isolate was acquired from the Centraalbureau voor Schimmelcultures, the Netherlands. The Botrytis fungus was propagated on 0.5% V8 agar plates (200 ml V8 Juice, 3 g CaCO3, 15 g agar, 800-ml millipore water) at 20° C., in a 12 h photoperiod for 21 days.
Fungal conidia were harvested by scraping a Botrytis plate flooded with 1 ml water with 0.1% Tween 80 solution. Conidia were then collected in a 50 ml falcon tube by passing the solution through a 40 micron filter. The solution was then centrifuged at 6000 rpm and the pellet was resuspended in 1 ml of 20% glycerol. The conidia concentration of the resulting solution was counted using a hemocytometer. The stock was diluted to […] using 20% glycerol and frozen in 100 μl aliquots in −80° C. until further use.
Peptides were tested for activity against Botrytis, using the resazurin assay. For this, fungal stock conidia was first diluted to 5000 conidia/well. 50 μl of the spore suspension was added to each well of the sterile 96-well clear bottom testing plate and mixed with 50 μl of peptide solutions to a final concentration of 100, 50, 20, 15 and 10 μM. The plate was incubated for 24 h at 20° C. After 24 h, 10 μl of resazurin dye was added to the microtiter plate and incubated again for […]. Fluorescence was measured at 570/620 nm after 4 h of incubation with resazurin.
Growth inhibition was calculated by subtracting the fluorescence values of conidia only wells from sample wells and depicted as % inhibition of fungal growth. Four technical replicates were used for all treatments.

| Compound | Inhibition at 10 μM [%] | Inhibition at 20 μM [%] | Inhibition at 50 μM [%] | Inhibition at 100 μM [%] | Inhibition at 15 μM (peptide 15 μM) [%] | active against Botrytis at 15 μM (peptide 15 μM) |
| --- | --- | --- | --- | --- | --- | --- |
| CSCC[C@H](NC(=O)[C@H](CO)NC(=O)[C@H](CCC(N)=O)NC(=O)CNC(=O)[C@H](CCCNC(=N)N)NC(=O)[C@H](Cc1c[nH]c2ccccc12)NC(=O)[C@H](Cc1ccccc1)NC(=O)[C@H](CCC(N)=O)NC(=O)[C@H](CC(C)C)NC(=O)[C@H](Cc1c[nH]c2ccccc12)NC(=O)[C@H](Cc1c[nH]cn1)NC(=O)[C@@H](N)Cc1c[nH]c2ccccc12)C(=O)N[C@@H](Cc1ccc(O)cc1)C(=O)O [compound 1] (H-WHWLQFWRGQSMY-OH; N-terminus and C-terminus assumed) | <90 | <90 | 100 | 100 |  |  |
| CSCC[C@H](NC(=O)[C@@H]1CCCN1C(=O)[C@H](CCC(N)=O)NC(=O)CNC(=O)[C@H](CCCCN)NC(=O)[C@H](CCCCN)NC(=O)[C@H](Cc1ccccc1)NC(=O)[C@H](CO)NC(=O)CNC(=O)[C@H](Cc1c[nH]c2ccccc12)NC(=O)[C@H](Cc1c[nH]cn1)NC(=O)[C@@H]1CCCN1)C(=O)N[C@@H](Cc1ccc(O)cc1)C(=O)O [compound 2] (H-PHWGSFKKGQPMY-OH; N-terminus and C-terminus assumed) | <90 | <90 | 100 | 100 |  |  |
| CSCC[C@H](NC(=O)[C@@H]1CCCN1C(=O)[C@H](C)NC(=O)CNC(=O)[C@H](Cc1c[nH]c2ccccc12)NC(=O)[C@H](CCCCN)NC(=O)[C@H](CC(C)C)NC(=O)[C@@H](NC(=O)[C@@H](NC(=O)[C@H](Cc1c[nH]c2ccccc12)NC(=O)[C@H](Cc1c[nH]cn1)NC(=O)[C@@H](N)CCCCN)C(C)C)[C@@H](C)O)C(=O)N[C@@H](Cc1ccc(O)cc1)C(=O)O [compound 3] (H-KHWVTLKWGAPMY-OH; N-terminus and C-terminus assumed) | <90 | 100.61 | 100 | 100 | <90 |  |
| CSCC[C@H](NC(=O)[C@@H]1CCCN1C(=O)[C@H](CCC(N)=O)NC(=O)CNC(=O)[C@@H]1CCCN1C(=O)[C@H](CCCCN)NC(=O)[C@H](Cc1ccccc1)NC(=O)[C@H](CCCNC(=N)N)NC(=O)[C@H](CC(C)C)NC(=O)[C@H](CC(C)C)NC(=O)[C@H](Cc1c[nH]cn1)NC(=O)[C@@H](N)Cc1c[nH]c2ccccc12)C(=O)N[C@@H](Cc1ccc(O)cc1)C(=O)O [compound 4] (H-WHLLRFKPGQPMY-OH; N-terminus and C-terminus assumed) | <90 | <90 | 100 | 100 |  |  |
| CSCC[C@H](NC(=O)[C@@H]1CCCN1C(=O)[C@H](CCC(N)=O)NC(=O)CNC(=O)[C@@H]1CCCN1C(=O)[C@H](CCCCN)NC(=O)[C@H](Cc1ccccc1)NC(=O)[C@H](CCCNC(=N)N)NC(=O)[C@H](CC(C)C)NC(=O)[C@H](Cc1c[nH]c2ccccc12)NC(=O)[C@H](Cc1c[nH]cn1)NC(=O)[C@@H]1CCCN1)C(=O)N[C@@H](Cc1ccc(O)cc1)C(=O)O [compound 5] (H-PHWLRFKPGQPMY-OH; N-terminus and C-terminus assumed) | <90 | <90 | 100 | 100 |  |  |
| CSCC[C@H](NC(=O)[C@@H]1CCCN1C(=O)[C@H](C)NC(=O)CNC(=O)[C@H](CCCNC(=N)N)NC(=O)[C@H](CCCCN)NC(=O)[C@H](CC(C)C)NC(=O)[C@H](CCC(N)=O)NC(=O)[C@@H](NC(=O)[C@H](Cc1c[nH]c2ccccc12)NC(=O)[C@H](Cc1c[nH]cn1)NC(=O)[C@@H]1CCCN1)C(C)C)C(=O)N[C@@H](Cc1ccc(O)cc1)C(=O)O [compound 6] (H-PHWVQLKRGAPMY-OH; N-terminus and C-terminus assumed) | <90 | <90 | 100 | 100 |  |  |
| CC[C@H](C)[C@H](NC(=O)[C@H](CCC(N)=O)NC(=O)[C@H](CC(C)C)NC(=O)[C@H](Cc1c[nH]c2ccccc12)NC(=O)[C@H](Cc1c[nH]cn1)NC(=O)[C@@H](N)CCCCN)C(=O)N[C@@H](CCCCN)C(=O)N[C@@H](Cc1ccc(O)cc1)C(=O)NCC(=O)N[C@@H](CCC(=O)O)C(=O)N1CCC[C@H]1C(=O)N[C@@H](CCSC)C(=O)N[C@@H](Cc1ccc(O)cc1)C(=O)O [compound 7] (H-KHWLQIKYGEPMY-OH; N-terminus and C-terminus assumed) | <90 | <90 | 100 | 100 |  |  |
| CC[C@H](C)[C@H](NC(=O)[C@H](Cc1c[nH]c2ccccc12)NC(=O)[C@H](Cc1c[nH]cn1)NC(=O)[C@@H](N)CCCCN)C(=O)N[C@@H](CCCCN)C(=O)N[C@@H](CC(C)C)C(=O)N[C@@H](CCSC)C(=O)N1CCC[C@H]1C(=O)NCC(=O)N[C@@H](CCC(N)=O)C(=O)NCC(=O)N[C@@H](CCSC)C(=O)N[C@@H](Cc1ccc(O)cc1)C(=O)O [compound 8] (H-KHWIKLMPGQGMY-OH; N-terminus and C-terminus assumed) | <90 | <90 | 100 | 100 |  |  |
| CSCC[C@H](NC(=O)[C@@H]1CCCN1C(=O)[C@H](CCC(N)=O)NC(=O)CNC(=O)[C@@H]1CCCN1C(=O)[C@H](CCCCN)NC(=O)[C@H](Cc1ccccc1)NC(=O)[C@H](CCCNC(=N)N)NC(=O)[C@H](CC(C)C)NC(=O)[C@H](Cc1c[nH]c2ccccc12)NC(=O)[C@H](Cc1c[nH]cn1)NC(=O)[C@@H](N)CCCCN)C(=O)N[C@@H](Cc1ccc(O)cc1)C(=O)O [compound 9] (H-KHWLRFKPGQPMY-OH; N-terminus and C-terminus assumed) | <90 | 100 | 100 | 100 | 100 | active |
| CC[C@H](C)[C@H](NC(=O)[C@H](CCC(N)=O)NC(=O)[C@@H](NC(=O)[C@H](Cc1c[nH]c2ccccc12)NC(=O)[C@H](Cc1c[nH]cn1)NC(=O)[C@@H]1CCCN1)C(C)C)C(=O)N[C@@H](CCCCN)C(=O)N[C@@H](CC(C)C)C(=O)NCC(=O)N[C@@H](CCC(N)=O)C(=O)N1CCC[C@H]1C(=O)N[C@@H](CCSC)C(=O)N[C@@H](Cc1ccc(O)cc1)C(=O)O [compound 10] (H-PHWVQIKLGQPMY-OH; N-terminus and C-terminus assumed) | <90 | <90 | 100 | 100 |  |  |
| CC[C@H](C)[C@H](NC(=O)[C@H](Cc1c[nH]c2ccccc12)NC(=O)[C@H](Cc1c[nH]cn1)NC(=O)[C@@H](N)CCCCN)C(=O)N[C@H](C(=O)N[C@@H](Cc1ccccc1)C(=O)N[C@@H](CCCCN)C(=O)N1CCC[C@H]1C(=O)NCC(=O)N[C@@H](CCC(N)=O)C(=O)N1CCC[C@H]1C(=O)N[C@@H](CCSC)C(=O)N[C@@H](Cc1ccc(O)cc1)C(=O)O)[C@@H](C)O [compound 11] (H-KHWITFKPGQPMY-OH; N-terminus and C-terminus assumed) | <90 | <90 | 100 | 100 |  |  |
